Experimental findings from patent publication US8106055B2, “Substituted amide compounds” (Gruenenthal GmbH, priority 2007, dated 2012) are described below.

Test [1] concerns the target T1, bradykinin 1 receptor (B1R) of the rat (Rattus norvegicus, UniProt P97583).
T1 construct: expressed in transfected cells; host or cells: CHO K1 cells
T1 sequence (P97583 1-337): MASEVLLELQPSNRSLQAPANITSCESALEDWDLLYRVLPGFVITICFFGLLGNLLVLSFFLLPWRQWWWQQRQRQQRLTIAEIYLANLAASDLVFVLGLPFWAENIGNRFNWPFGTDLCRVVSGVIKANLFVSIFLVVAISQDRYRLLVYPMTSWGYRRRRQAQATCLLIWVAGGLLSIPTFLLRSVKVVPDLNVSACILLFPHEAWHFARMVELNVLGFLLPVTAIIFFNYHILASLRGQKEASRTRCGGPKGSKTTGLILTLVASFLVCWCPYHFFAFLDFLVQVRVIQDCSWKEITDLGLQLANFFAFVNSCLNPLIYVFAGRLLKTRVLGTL
The test can be described thus: Functional investigation on the rat bradykinin 1 receptor (B1R), Ca2+ FLIPR assay in CHO K1 rB1R cells. Type of test: cell-based. The method in brief:
(§1)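 Stably transfected CHO K1 cells loaded with Fluo-4; FLIPR Ca2+ fluorescence peak (ex 488/em 540 nm). Compound added first (agonism vs Lys-Des-Arg9-bradykinin ≥50 nM human, Des-Arg9-bradykinin 10 μM rat), then after 10-20 min agonist at EC80; antagonism as % inhibition, IC50 from concentration series, n=2-3, N≥2.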

The target of test [2] is T2, human bradykinin 1 receptor (B1R) (Homo sapiens, UniProt P46663).
T2 construct: expressed in transfected cells; host or cells: CHO K1 cells
T2 sequence (P46663 1-353): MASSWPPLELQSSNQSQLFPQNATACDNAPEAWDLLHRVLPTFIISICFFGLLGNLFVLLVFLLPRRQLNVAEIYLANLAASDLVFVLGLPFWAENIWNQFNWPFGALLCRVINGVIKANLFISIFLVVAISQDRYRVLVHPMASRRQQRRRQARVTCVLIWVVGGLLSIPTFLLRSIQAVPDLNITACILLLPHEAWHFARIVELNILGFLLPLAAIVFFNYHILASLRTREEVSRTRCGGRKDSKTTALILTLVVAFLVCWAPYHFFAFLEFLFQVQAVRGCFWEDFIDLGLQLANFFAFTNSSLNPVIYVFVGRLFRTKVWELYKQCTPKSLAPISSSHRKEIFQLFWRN
Kind of test: Functional investigation on the human bradykinin 1 receptor (B1R), Ca2+ FLIPR assay in CHO K1 hB1R cells. Type of test: cell-based. The method in brief:
as §1

The mark [3] stands for this setting: CHO-K1, B1R antagonism rat, test substance 10 μM, Ca2+ FLIPR, CHO K1 rB1R cells, read-out: B1R Ant. r [10 μM] % Inhibition.
Setting [4] is: CHO-K1, B1R antagonism human, test substance 10 μM, Ca2+ FLIPR, CHO K1 hB1R cells, read-out: B1R Ant. h [10 μM] % Inhibition.

Where two headings read alike, the source gives them in different places.

As for `CN(C)C(c1ccccc1)C1CCC(CNC(=O)COC2CCN(S(=O)(=O)c3ccc(Cl)cc3Cl)C2)CC1` (stereo not shown) [Example 67, 2-(1-(2,4-dichlorophenylsulfonyl)pyrrolidin-3-yloxy)-N-((4-((dimethylamino)(phenyl)methyl)cyclohexyl)methyl)acetamide], the inhibition at 10 µM in test [1] (CHO-K1, read-out: B1R Ant. r [10 μM] % Inhibition) worked out at 46%; in test [2] (CHO-K1, read-out: B1R Ant. h [10 μM] % Inhibition) it was 48%.

Take `COc1cc(C)c(S(=O)(=O)N(C)CCOCC(=O)NC2CCC(C(c3ccccc3)N(C)C)CC2)c(C)c1C` (stereo not shown) [Example 80, N-(4-((dimethylamino) (phenyl)methyl)cyclohexyl)-2-(2-(4-methoxy-N,2,3,6-tetramethylphenylsulfonamido)ethoxy)acetamide]: the “B1R Ant. r [10 μM] % Inhibition” value in test [1] (B1R antagonism rat, test substance 10 μM, Ca2+ FLIPR, CHO K1 rB1R cells) turned out to be 6%. Also, in test [2] (B1R antagonism human, test substance 10 μM, Ca2+ FLIPR, CHO K1 hB1R cells), the “B1R Ant. h [10 μM] % Inhibition” value was 98%.

In the case of `COc1cc(C)c(S(=O)(=O)N(C)CCOCC(=O)NCCC2CCC(C(c3cccs3)N(C)C)CC2)c(C)c1` (stereo not shown) [Example 84, N-(2-(4-((dimethylamino)(thiophen-2-yl)methyl)cyclohexyl)ethyl)-2-(2-(4-methoxy-N,2,6-trimethylphenylsulfonamido)ethoxy)acetamide], the inhibition at 10 µM stood at 103% in test [1] (setting [3]) and 104% in test [2] (setting [4]).

Consider `COc1cc(C)c(S(=O)(=O)N2CCC(CCOCC(=O)NCCC3CCC(C(c4cccs4)N(C)C)CC3)CC2)c(C)c1C` (stereo not shown) [Example 75, N-(2-(4-((dimethylamino)(thiophen-2-yl)methyl)cyclohexyl)ethyl)-2-(2-(1-(4-methoxy-2,3,6-trimethylphenylsulfonyl)piperidin-4-yl)ethoxy)acetamide], for which the inhibition at 10 µM in test [1] (setting [3]) and in test [2] (setting [4]) was 15% in each case.

As for `Cc1cc(C)c(S(=O)(=O)N(C)CCOCC(=O)NCC2CCC(C(c3cccs3)N(C)C)CC2)c(C)c1` (stereo not shown) [Example 57, N-((4-((dimethylamino)(thiophen-2-yl)methyl)cyclohexyl)methyl)-2-(2-(N,2,4,6-tetramethylphenylsulfonamido)ethoxy)acetamide], the figures for the inhibition at 10 µM in test [1] (setting [3]) and in test [2] (setting [4]) were 35% and 82%, respectively.

Turning to `CCN(CCOCC(=O)NC1CCC(C(c2cccs2)N(C)C)CC1)S(=O)(=O)c1c(C)cc(OC)c(C)c1C` (stereo not shown) [Example 59, N-(4-((dimethylamino)(thiophen-2-yl)methyl)cyclohexyl)-2-(2-(N-ethyl-4-methoxy-2,3,6-trimethylphenylsulfonamido)ethoxy)acetamide], the inhibition at 10 µM was 70% in test [1] (setting [3]) and 56% in test [2] (setting [4]).

Turning to `CN(C)C(c1cccs1)C1CCC(CNC(=O)COCCN(C)S(=O)(=O)c2cccc(C(F)(F)F)c2)CC1` (stereo not shown) [Example 92, N-((4-((dimethylamino)(thiophen-2-yl)methyl)cyclohexyl)methyl)-2-(2-(N-methyl-3-(trifluoromethyl)phenylsulfonamido)ethoxy)acetamide], the inhibition at 10 µM in test [1] (setting [3]) was determined as 1%; in test [2] (setting [4]), 31%.

Consider `COc1cc(C)c(S(=O)(=O)N(C)CCOCC(=O)NCC2CCC(C(c3cccs3)N(C)C)CC2)c(C)c1` (stereo not shown) [Example 69, N-((4-((dimethylamino)(thiophen-2-yl)methyl)cyclohexyl)methyl)-2-(2-(4-methoxy-N,2,6-trimethylphenylsulfonamido)ethoxy)acetamide], for which the inhibition at 10 µM in test [1] (setting [3]) came to 100%; in test [2] (setting [4]), 104%.

On to `CN(C)C(c1ccccc1)C1CCC(CNC(=O)COCCN(C)S(=O)(=O)c2cccc(C(F)(F)F)c2)CC1` (stereo not shown) [Example 91, N-((4-((dimethylamino)(phenyl)methyl)cyclohexyl)methyl)-2-(2-(N-methyl-3-(trifluoromethyl)phenylsulfonamido)ethoxy)acetamide], for which the inhibition at 10 µM in test [1] (setting [3]) stood at 34%; in test [2] (setting [4]), 42%.

As to `COc1cc(C)c(S(=O)(=O)N(C)CCOCC(=O)NCC2CCC(C(c3cccs3)N(C)C)CC2)c(C)c1C` (stereo not shown) [Example 35, N-((4-((dimethylamino)(thiophen-2-yl)methyl)cyclohexyl)methyl)-2-(2-(4-methoxy-N,2,3,6-tetramethylphenylsulfonamido)ethoxy)acetamide], the inhibition at 10 µM in test [1] (setting [3]) came out at 0%; in test [2] (setting [4]), 50%.

On to `COc1ccc(S(=O)(=O)N2CCCCC2COCC(=O)NCC2CCC(C(c3cccs3)N(C)C)CC2)c(OC)c1` (stereo not shown) [Example 49, 2-((1-(2,4-dimethoxyphenylsulfonyl)piperidin-2-yl)methoxy)-N-((4-((dimethylamino)(thiophen-2-yl)methyl)cyclohexyl)methyl)acetamide], for which the inhibition at 10 µM in test [1] (setting [3]) came to 23%; in test [2] (setting [4]) it was 2%.

Regarding `COc1cc(C)c(S(=O)(=O)N2CCC(OCC(=O)NC3CCC(C(c4cccs4)N(C)C)CC3)C2)c(C)c1C` (stereo not shown) [Example 43, N-(4-((dimethylamino)(thiophen-2-yl)methyl)cyclohexyl)-2-(1-(4-methoxy-2,3,6-trimethylphenylsulfonyl)pyrrolidin-3-yloxy)acetamide], the inhibition at 10 µM in test [1] (setting [3]) was found to be 21%; in test [2] (setting [4]), 37%.

For `COc1ccc(S(=O)(=O)N2Cc3ccccc3CC2COCC(=O)NC2CCC(C(c3cccs3)N(C)C)CC2)cc1` (stereo not shown) [Example 47, N-(4-((dimethylamino)(thiophen-2-yl)methyl)cyclohexyl)-2-((2-(4-methoxyphenylsulfonyl)-1,2,3,4-tetrahydroisoquinolin-3-yl)methoxy)acetamide], the inhibition at 10 µM in test [1] (setting [3]) came to 36%; in test [2] (setting [4]), 24%.

Regarding `Cc1cc(C)c(S(=O)(=O)N2CCC(OCC(=O)NCCC3CCC(C(c4cccs4)N(C)C)CC3)C2)c(C)c1` (stereo not shown) [Example 71, N-(2-(4-((dimethylamino)(thiophen-2-yl)methyl)cyclohexyl)ethyl)-2-(1-(mesitylsulfonyl)pyrrolidin-3-yloxy)acetamide], the inhibition at 10 µM in test [1] (setting [3]) is 54%; in test [2] (setting [4]), 84%.

As for `COc1ccc(S(=O)(=O)N(C)CCOCC(=O)NC2CCC(C(c3cccs3)N(C)C)CC2)cc1` (stereo not shown) [Example 73, N-(4-((dimethylamino)(thiophen-2-yl)methyl)cyclohexyl)-2-(2-(4-methoxy-N-methylphenylsulfonamido)ethoxy)acetamide], the inhibition at 10 µM in test [1] (setting [3]) amounted to 29%; in test [2] (setting [4]), 11%.

Regarding `COc1cc(C)c(S(=O)(=O)N2CCC(OCC(=O)NCC3CCC(C(c4ccccc4)N(C)C)CC3)C2)c(C)c1C` (stereo not shown) [Example 44, N-((4-((dimethylamino)(phenyl)methyl)cyclohexyl)methyl)-2-(1-(4-methoxy-2,3,6-trimethylphenylsulfonyl)pyrrolidin-3-yloxy)acetamide], the inhibition at 10 µM amounted to 22% in test [1] (setting [3]) and 46% in test [2] (setting [4]).

As for `COc1cc(C)c(S(=O)(=O)N2CCC(CCOCC(=O)NC3CCC(C(c4cccs4)N(C)C)CC3)CC2)c(C)c1C` (stereo not shown) [Example 5, N-(4-((dimethylamino)(thiophen-2-yl)methyl)cyclohexyl)-2-(2-(1-(4-methoxy-2,3,6-trimethylphenylsulfonyl)piperidin-4-yl)ethoxy)acetamide], the inhibition at 10 µM in test [1] (setting [3]) is -3%; in test [2] (setting [4]), 24%.

As for `COc1ccc(S(=O)(=O)N2CCCCC2CCOCC(=O)NCCC2CCC(C(c3cccs3)N(C)C)CC2)cc1` (stereo not shown) [Example 46, N-(2-(4-((dimethylamino)(thiophen-2-yl)methyl)cyclohexyl)ethyl)-2-(2-(1-(4-methoxyphenylsulfonyl)piperidin-2-yl)ethoxy)acetamide], the inhibition at 10 µM in test [1] (setting [3]) stood at 77%; in test [2] (setting [4]), 86%.

Regarding `CN(C)C(c1cccc(F)c1)C1CCC(CNC(=O)COCCN(C)S(=O)(=O)c2c(Cl)cccc2Cl)CC1` (stereo not shown) [Example 72, 2-(2-(2,6-dichloro-N-methylphenylsulfonamido)ethoxy)-N-((4-((dimethylamino)(3-fluorophenyl)methyl)cyclohexyl)methyl)acetamide], the values for the inhibition at 10 µM in test [1] (setting [3]) and in test [2] (setting [4]) were 38% and 94%, respectively.

Take `COc1ccc(S(=O)(=O)N2CCCCC2CCOCC(=O)NCC2CCC(C(c3ccccc3)N(C)C)CC2)cc1` (stereo not shown) [Example 89, N-((4-((dimethylamino)(phenyl)methyl)cyclohexyl)methyl)-2-(2-(1-(4-methoxyphenylsulfonyl)piperidin-2-yl)ethoxy)acetamide]: the inhibition at 10 µM in test [1] (setting [3]) worked out at 50%; in test [2] (setting [4]) it was 42%.
